# Patent US20230397607A1, “COMPOSITIONS COMPRISING MEFENTRIFLUCONAZOLE” (BASF AGRO B.V., priority 2020, published 2023)
# Where two headings read alike, the source gives them in different places.
# Experiments:
# [1] = system: Qoi resistant isolate of Pyrenophora teres; test: Microtiter test: activity against net blotch Pyrenophora teres on barley (PYRNTE); assay type: cell-based; conditions: single active, 7 days after inoculation
# Description: 2. Activity Against Net Blotch Pyrenophora teres on Barley in the Microtiter Test (PYRNTE)
# These percentages were converted into efficacies.
# Septoria tritici = conditions: SEPTTR, single active, 7 days after inoculation
# Description: Activity Against Leaf Blotch on Wheat Caused by Septoria tritici (SEPTTR)
# The stock solutions were mixed according to the ratio, pipetted onto a micro titer plate (MTP) and diluted with water to the stated concentrations. A spore suspension of Septoria tritici in an aqueous biomalt or yeast-bactopeptone-glycerine or DOB solution was then added. The plates were placed in a water vapor-saturated chamber at a temperature of 18° C. Using an absorption photometer, the MTPs were measured at 405 nm 7 days after the inoculation.
# An efficacy of 0 means that the growth level of the pathogens corresponds to that of the untreated control; an efficacy of 100 means that the pathogens were not growing.
smiles,measurement,setting,value
"CC1CC(C)(C)c2cccc(NC(=O)c3cn(C)nc3C(F)F)c21 (stereo in doubt) [compound II, 3-(difluoromethyl)-N-[(3R)-2,3-dihydro-1,1,3-trimethyl-1H-inden-4-yl]-1-methyl-1H-pyrazole-4-carboxamide]",Observed efficacy,[1]; 0.004 ppm,0%
same,Observed efficacy,[1]; 0.016 ppm,10%
same,Observed efficacy,[1]; 0.063 ppm,37%
same,Observed efficacy,Septoria tritici; 0.016 ppm,0%
same,Observed efficacy,Septoria tritici; 0.063 ppm,17%
"CO/C=C(/C(=O)OC)c1ccccc1Oc1cc(Oc2ccccc2C#N)ncn1 [azoxystrobin (A.1.1), azoxystrobin]",Observed efficacy,Septoria tritici; 0.004 ppm,7%
"CC(O)(Cn1cncn1)c1ccc(Oc2ccc(Cl)cc2)cc1C(F)(F)F (stereo not drawn) [compound I, 2-[4-(4-chlorophenoxy)-2-(trifluoromethyl)phenyl]-1-(1,2,4-triazol-1-yl) propan-2-ol]",Observed efficacy,[1]; 0.00025 ppm,0%
same,Observed efficacy,[1]; 0.001 ppm,0%
same,Observed efficacy,[1]; 0.004 ppm,0%
same,Observed efficacy,Septoria tritici; 0.001 ppm,7%
same,Observed efficacy,Septoria tritici; 0.004 ppm,69%
"Cn1cc(C(=O)Nc2ccccc2-c2cc(F)c(F)c(F)c2)c(C(F)F)n1 [fluxapyroxad (A.3.9), fluxapyroxad]",Observed efficacy,[1]; 0.004 ppm,0%
"CC(C)c1ccc(Cl)cc1CN(C(=O)c1c(C(F)F)nn(C)c1F)C1CC1 [isoflucypram (A.3.26), isoflucypram]",Observed efficacy,Septoria tritici; 0.063 ppm,37%
"CON(C(=O)c1cn(C)nc1C(F)F)C(C)Cc1c(Cl)cc(Cl)cc1Cl (stereo not drawn) [pydiflumetofen (A.3.17), pydiflumetofen]",Observed efficacy,[1]; 0.063 ppm,10%
"COC(=O)N(OC)c1ccccc1COc1ccn(-c2ccc(Cl)cc2)n1 [pyraclostrobin (A.1.14), pyraclostrobin]",Observed efficacy,Septoria tritici; 0.001 ppm,9%
